Assays:
[1] = molecular target: T1, recombinant human NK1 receptor (Homo sapiens, UniProt P25103); test: Substance P induced Ca2+ influx in CHO cells (FLIPR), Schild analysis; type: cell-based
T1 construct: expressed in transfected cells; host or cells: CHO cells
Source text: The activity in vitro was examined by studying its effect on substance P induced Ca^2+ influxes in CHO cells expressing the recombinant human NK1 receptor. In these cells, substance P causes a concentration dependent influx of Ca^2+ which can be measured using FLIPR technology.

[2] = tested on: foot-tapping behaviour induced in Gerbils; test: Foot-tapping behaviour induced by i.c.v. injection of an NK1 receptor agonist; type: in vivo
[3] = tested on: emesis induced in Ferets; test: Emesis induced by various emetogens; type: in vivo
[4] = tested on: motion sickness in the suncus murinus; test: Model of motion sickness; type: in vivo; settings: po
[5] = molecular target: NK2 receptors (Homo sapiens, UniProt P21452); settings: binding
[6] = molecular target: NK3 receptors (Homo sapiens, UniProt P29371); settings: binding
Chain of NK3 receptors (P29371 whole entry): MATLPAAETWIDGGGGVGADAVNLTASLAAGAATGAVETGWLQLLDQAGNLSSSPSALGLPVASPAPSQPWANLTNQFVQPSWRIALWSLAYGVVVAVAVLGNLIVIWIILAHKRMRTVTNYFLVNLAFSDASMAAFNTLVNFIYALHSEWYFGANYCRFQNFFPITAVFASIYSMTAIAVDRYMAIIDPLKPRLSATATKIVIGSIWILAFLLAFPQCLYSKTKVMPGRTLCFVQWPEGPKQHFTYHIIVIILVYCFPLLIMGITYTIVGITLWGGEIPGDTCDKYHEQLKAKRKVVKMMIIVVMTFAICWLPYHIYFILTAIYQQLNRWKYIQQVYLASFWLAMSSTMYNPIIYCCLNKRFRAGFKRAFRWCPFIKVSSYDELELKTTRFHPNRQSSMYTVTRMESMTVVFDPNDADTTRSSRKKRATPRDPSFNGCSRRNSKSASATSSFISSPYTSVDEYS

T1 sequence (P25103 whole entry): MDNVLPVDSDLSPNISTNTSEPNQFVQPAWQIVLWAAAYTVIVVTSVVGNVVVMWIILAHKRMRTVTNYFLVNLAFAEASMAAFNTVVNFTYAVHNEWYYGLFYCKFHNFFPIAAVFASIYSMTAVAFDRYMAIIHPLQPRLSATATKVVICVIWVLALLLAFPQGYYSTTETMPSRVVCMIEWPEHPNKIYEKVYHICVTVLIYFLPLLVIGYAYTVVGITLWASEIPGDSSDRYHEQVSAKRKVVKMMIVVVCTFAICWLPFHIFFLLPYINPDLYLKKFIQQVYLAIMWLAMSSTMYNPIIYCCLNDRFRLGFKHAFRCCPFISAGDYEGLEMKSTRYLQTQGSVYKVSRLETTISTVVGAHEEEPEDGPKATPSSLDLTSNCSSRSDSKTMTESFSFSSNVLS
Chain of NK2 receptors (P21452 whole entry): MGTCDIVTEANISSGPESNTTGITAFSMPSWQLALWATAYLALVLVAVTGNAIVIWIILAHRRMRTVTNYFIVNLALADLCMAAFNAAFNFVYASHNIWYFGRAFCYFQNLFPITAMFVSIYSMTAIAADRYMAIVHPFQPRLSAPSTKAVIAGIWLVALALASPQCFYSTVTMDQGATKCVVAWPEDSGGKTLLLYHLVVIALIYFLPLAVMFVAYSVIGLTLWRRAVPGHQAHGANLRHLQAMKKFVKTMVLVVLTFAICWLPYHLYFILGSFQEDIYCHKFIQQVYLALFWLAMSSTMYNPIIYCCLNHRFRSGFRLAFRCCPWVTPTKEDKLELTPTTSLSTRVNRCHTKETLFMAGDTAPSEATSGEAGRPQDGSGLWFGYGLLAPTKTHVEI

## Cc1ccccc1-c1cc(N2CCOCC2)ncc1N(C)C(=O)C(C)(C)c1cc(C(F)(F)F)cc(C(F)(F)F)c1 [compound of formula I, 2-(3,5-Bis-trifluoromethyl-phenyl)-N-methyl-N-(6-morpholin-4-yl-4-o-tolyl-pyridin-3-yl)-isobutyramide]
[1]
  slope of the Schild regression: 1.1
[1]; Schild plot, read-out: antagonist affinity (pA2) (converted)
  Kb: 1.26 nM
[2]; Gerbils
  total plasma concentration required to completely block the foot-tapping behaviour: 10 ng/mL
[2]; Gerbils, persistence of antagonism of foot-tapping
  functional half life: 8 h
[2]; Meriones unguiculatus, po, read-out: dose calculated to inhibit 50 % of the foot-tapping behaviour
  ED50: 0.2 mg/kg
[3]; 0.3 mg/kg p.o. 2 hours before emetogen (apomorphine, morphine, ipecacuanha, cisplatin, CuSO4)
  emesis induced by all emetogens: completely blocked
[3]; Mustela putorius, po, apomorphine-induced emesis
  ED50: 0.1 mg/kg
[4]
  ED50: 0.2 mg/kg
[5]
  selectivity for the NK1 receptor compared to NK2 receptors: over 2 orders of magnitude
[6]
  selectivity for the NK1 receptor compared to NK3 receptors: over 2 orders of magnitude
other
  selectivity for the NK1 receptor compared to over 50 other binding sites: over 2 orders of magnitude
